Several values for one entry are separate records, joined by “and”; a condition that tells them apart may be missing. Equal values may be shown once.

A short description of data set [1]: [14C]Compound I incubation with monkey liver microsomes (MKLM), metabolite profile. In kind it is in vitro ADME. Particulars: 1 hr incubation, 37° C., 20 μM, NADPH. The procedure: (§1) Each mL of the incubation mixture, in 100 mM of potassium phosphate buffer (pH 7.4), contained: 20 nmol of test article, 1 mg of microsomal protens, 3 μmol of NADPH and 10 μmol of magnesium chloride. The final concentrations were: test article, 20 μM; microsomal proteins, 1 mg/mL; NADPH, 3 mM; magnesium chloride, 10 mM; acetonitrile, 1% (v/v). 7-EC (100 μM) was used as the positive control for enzyme activity in the microsomes of all species. Two negative controls, one without NADPH and the other using heat-treated microsomes (5 min in boiling water), were carried out to determine the stability of the test article. […]
(§2) Incubations were carried out aerobically at 37° C. with constant shaking. […] At the end of incubation, duplicate aliquots (10 μL) of the incubation mixture of the negative controls and the test article incubations were taken for liquid scintillation counting of radioactivity. […]
(§3) The radiochemical purity of [^14C]Compound I and the metabolite profiles of the compound in the methanol extract of liver microsomal incubations were determined by HPLC radiochromatograpby using the following system:
(§4) Fractions of the HPLC effluent were collected (0.25 min/fraction) into a 96-well deep luma plates and the collected fractions were dried using Savant Automatic SpeedVac system. Radioactivity was then determined with a Packard Top Count-NXT counter. […]
On the technique in general: Microsomes from liver hold many membrane-bound enzymes, among them those of drug oxidation.

The nature of data set [2]: Rank order of metabolic stability in liver microsomes of the five species. In kind it is in vitro ADME. Particulars: 1 hr incubation. The procedure: Each mL of the incubation mixture, in 100 mM of potassium phosphate buffer (pH 7.4), contained: 20 nmol of test article, 1 mg of microsomal protens, 3 μmol of NADPH and 10 μmol of magnesium chloride. The final concentrations were: test article, 20 μM; microsomal proteins, 1 mg/mL; NADPH, 3 mM; magnesium chloride, 10 mM; acetonitrile, 1% (v/v). 7-EC (100 μM) was used as the positive control for enzyme activity in the microsomes of all species. Two negative controls, one without NADPH and the other using heat-treated microsomes (5 min in boiling water), were carried out to determine the stability of the test article. The total volume of incubation mixture was 5 mL each for the test article incubations and 1 mL each for the positive and negative controls.
Incubations were carried out aerobically at 37° C. with constant shaking. Incubation mixtures were prepared at 0-4° C. (on ice). […] At the end of incubation, duplicate aliquots (10 μL) of the incubation mixture of the negative controls and the test article incubations were taken for liquid scintillation counting of radioactivity. […]
[^14C]Compound I was separately incubated with mouse, rat, dog, monkey and human liver microsoomes fortified with NADPH for 1 hr at 37° C. The incubation mixtures were extracted with methanol and the extacts were analyzed by HPLC radiochromatograpby and LC/RAM/(+)ESI-MS and MS/MS.

A short description of data set [3]: [14C]Compound I incubation with mouse liver microsomes (MLM), metabolite profile. Particulars: 1 hr incubation, 37° C., 20 μM, NADPH. In kind it is in vitro ADME. Here is the method:
as §1, §2, §3, §4

Data set [4] in a line: [14C]Compound I incubation with rat liver microsomes (RLM), metabolite profile. In kind it is in vitro ADME. As to conditions: 1 hr incubation, 37° C., 20 μM, NADPH. Here is the method:
as §1, §2, §3, §4

Data set [5] in a line: [14C]Compound I incubation with dog liver microsomes (DLM), metabolite profile. In kind it is in vitro ADME. Particulars: 1 hr incubation, 37° C., 20 μM, NADPH. The procedure: as §1, §2, §3, §4
The nature of data set [6]: [14C]Compound I incubation with human liver microsomes (HLM), metabolite profile. In kind it is in vitro ADME. As to conditions: 1 hr incubation, 37° C., 20 μM, NADPH. Here is the method: as §1, §2, §3, §4
Data set [7] in a line: Biotransformation of [14C]Compound I in bile duct cannulated rats after a single oral dose. As to conditions: single 25-mg/kg oral dose. In kind it is in vivo, rat. From the text:
A single 25-mg/kg oral dose of [^14C] Compound I, as a solution in cremophore
EL/ethanol/water (10:10:80, v/v/v), was separately administered to two male bile duct cannulated (BDC) rats. Within 24 hr after dosing, an average of 25.8% of the administered dose was excreted in bile, The corresponding value in urine was 3.9%. […] Thus, the oral absorption of [^14C] Compound I in rats was estimated to be at least 30%. Following the oral dose, the concentration of total radioactivity in plasma was measurable up to 24 hr and averaged 349 ng-equiv./mL at that time. The parent drug was a prominent radioactive component in plasma. At 24 hr after dosing, the concentration of Compound I in plasma was estimated to be 61 ng/mL. More than 20 hydrolytic and oxidative metabolites of [^14C] Compound I were detected in plasma.
Bile duct and jugular vein cannulated (BDC/JVC) male Sprague-Dawley rats (Hla®: [SD] CVF®, 6-10 weeks old and weighing 300±50 g at dosing), were purchased from Hilltop Laboratories (Scottdale, Pa.). Upon receipt, each rat was marked on the tail and given an ear tag with a unique identification number.
The dosing solution was prepared as follows: 7.96 mg of non-radiolabeled Compound I, 10.16 mg of [^13C] Compound I and 2.99 mg of [^14C] Compound I (77.7 μCi of radioactivity) were weighed into a vial. The compounds were then dissolved in 1.6 mL of a cremophore EL/ethanol solution (1:1, v/v) and diluted with 6.4 mL of sterile water. The total weight of the dosing solution was 7.53 g. The concentration of [^14C] Compound I in the dosing solution was […] (10.32 μCi/g) of solution. The nominal specific activity was 3.68 μCi/mg (8170 dpm/μg).
Two rats, housed individually in Nalgene metabolic cages, were each given a single 25-mg/kg nominal dose of [^14C] Compound I orally by gavage. The actual amount of dosing solution administered to each animal was determined by weighing the loaded dosing syringe before dose administration and the emptied syringe after dose administration. Bile was collected from each animal between −1-0 (pre-dose), 0-6, 6-12, and 12-24 hr after dosing. Urine was collected between −24-0 (predose), 0-12, and 12-24 hr after dosing. Both the bile and urine samples were collected in tubes set on dry ice. At 0.5, 6, and 12 hr after dosing, blood samples (−1.2 mL) were collected from the jugular vein cannula into a heparinized syringe. At 24 hr after dosing, animals were sacrificed by CO2 asphyxiation. Terminal blood was collected by cardiac puncture into a heparinized vacutainer. Predose blood sample was collectd from a separate control animal. Blood was centrifuged at 2,500 rpm and 4° C. for 10 min to separate the plasma. Bile, urine, and plasma samples were weighed and stored at −20° C. prior to analysis.
Concentrations of radioactivity in bile, urine, and plasma samples were determined by counting duplicate aliquots of each sample in 5 mL of Ready Value™ cocktail (Beckman Instrunents, Inc.) with a Beckman LS 3801, LS 5000TD, or LS6000TA Liquid Scintillation Counter for 10 min or until the 2-sigma error was less than or equal to 2%, whichever came first. Quench correction was performed using an external standard method. Most of the HPLC fractions used to prepare reconstructed HPLC chromatograms were counted for 5 minutes except for plasma samples, which were counted for 10 minutes.
A portion (−20% of each sample) of the 0-6, 6-12, and 12-24 hr bile samples from two rats were pooled by interval to prepare three pooled samples. A portion (−20% of each sample) of the 0-6, 6-12, and 12-24 hr bile samples from two rats were pooled together to prepare a 0-24 hr sample. Duplicate 10-μL aliquots of each pooled sample were taken for radioactivity counting.
A portion (−20% of each sample) of the 0-12 and 12-24 hr urine samples from two rats were pooled by interval to prepare two pooled samples. […]

The next data set relates to tumors. Particulars: Proc Am Assoc Cancer Res 1999 40 Abs 1905; cited from earlier work.
The conditions of data set [8]: prior art; cited from earlier work.
For data set [9] the following is noted: oral; quote from WO98/53811; cited from earlier work.
The next data set has as its system sc M109. In kind it is in vivo. Particulars: oral doses as high as 160 mg/kg/inj, murine tumor models (sc M109). From the text: […]; see Eiseman et al., Second NCI Workshop on Taxol and Taxus (September 1992); Suffness et.al. in TAXOL Science and Applications (CRC Press 1995). […]. Another report by J. Terwogt et. al. from The Lancet, Jul. […] […].
The test system of a further data set is human tumor xenografts. Nature of the data set: Oral paclitaxel against human tumor xenografts in athymic mice or rats. Particulars: human tumor xenografts implanted in athymic mice or athymic rats. For orientation: In xenograft studies the graft and the host belong to different species.
For data set [10] the following is noted: up to 160 mg/kg/day, Suffness et al.; cited from earlier work.
The mark [11] stands for this setting: BDC rats, within 24 hr, average of two rats, total radioactivity.

Regarding `COC(=O)O[C@@]12CO[C@@H]1C[C@H](O)[C@@]1(C)C(=O)[C@H](OC(C)=O)C3=C(C)[C@@H](OC(=O)[C@H](O)[C@@H](NC(=O)OC(C)(C)C)C(C)(C)C)C[C@@](O)([C@@H](OC(=O)c4ccccc4)C12)C3(C)C` (some centres unmarked) [Compound I, 3′-tert-butyl-3′-N-tert-butyloxycarbonyl-4-deacetyl-3′-dephenyl-3′-N-debenzoyl-4-O-methoxycarbonyl-paclitaxel], the “parent drug in the incubation mixture remained unchanged” value is 2.9% in data set [1]; 31.5% in data set [3]; 72.5% in [4]; 59.7% and 58.7% in data set [5]. Further, in data set [2], the “rank order of metabolic stability in the liver microsomes of the five species” value is reported as “rat>dog>mouse>human>monkey”. Besides, in [6], the “parent drug in the incubation mixture recovered unchanged” value is 21.4%. The “total recovery of the administered dose in bile and urine” value in data set [7] (BDC rats, 24 hr, average) is 29.6%. The “administered dose excreted in bile” value in data set [7] (setting [11]) stood at 25.8%. Further, the “administered dose excreted in urine” value in data set [7] (setting [11]) is reported as 3.9%. Also, the concentration at 24 h in [7] (male, Sprague-Dawley, rat, rats, at 24 hr after dosing, pooled plasma, read-out: concentration of Compound I in plasma (estimated)) was 61 ng/mL. Moreover, the “parent drug detected in bile, % of total radioactivity” value in data set [7] (rats, 0-24 h pooled bile) is reported as less than 1%. Besides, the “concentration of total radioactivity in plasma” value in data set [7] (rats, at 24 hr, average) was determined as 349 ng-equiv./mL. For the same molecule, the “oral absorption (estimated)” value in data set [7] (rats, from bile and urine recovery) is reported as “at least 30%”. Besides, the “parent drug detected in urine” value in data set [7] (rats, pooled urine) was no more than 1%.

As for `CC(=O)O[C@H]1C(=O)[C@@]2(C)[C@H]([C@H](OC(=O)c3ccccc3)[C@]34OC(=O)O[C@H]3[C@H](OC(=O)[C@H](O)[C@H](CC(C)C)NC(=O)OC(C)(C)C)C(C)=C1C4(C)C)[C@]1(OC(C)=O)CO[C@@H]1C[C@@H]2O` [IDN-5109], in the data set with tumors, the “activity against tumors in mice after oral administration” value is listed as “oral activity”.

For `O=C(O)CNC(=O)c1ccccc1` [Metabolite M3, hippuric acid], in data set [7] (rats, 0-24 hr pooled urine), the “% of the dose in urine accounted for by metabolite(s)” value is roughly 2.3%; the “% of total radioactivity in urine accounted for by metabolite(s)” value was ~56% and ~60%.

As for `CC(=O)O[C@@]12CO[C@@H]1C[C@H](O)[C@@]1(C)C(=O)[C@H](O)C3=C(C)[C@@H](OC(=O)[C@H](O)[C@@H](NC(=O)OC(C)(C)C)c4ccccc4)C[C@@](O)([C@@H](OC(=O)c4ccccc4)[C@H]21)C3(C)C` [TAXOTERE®, docetaxel], the “oral activity in human or animal models” value in [8] is “no oral activity”.

With `CC(=O)O[C@H]1C(=O)[C@@]2(C)[C@H]([C@H](OC(=O)c3ccccc3)[C@]3(O)C[C@H](OC(=O)[C@H](O)[C@@H](NC(=O)c4ccccc4)c4ccccc4)C(C)=C1C3(C)C)[C@]1(OC(C)=O)CO[C@@H]1C[C@@H]2O` [paclitaxel], in [9], the “absorbed when administered orally” value is listed as “less than 1%”. The “efficacy after oral dosing” value in the data set on sc M109 was “without signs of any efficacy”. Also, the “attempts to demonstrate activity for orally administered drug” value with human tumor xenografts is “unsuccessful”. Besides, the “antitumor activity on oral administration” value in [10] was “no evidence of antitumor activity”. Also, the “oral activity in human or animal models” value in data set [8] is “no oral activity”.

Source of the values: patent US20070105944A1, “Taxane metabolites” (priority 2002, published 2007).
